In patent US12157745B2, “Heterocyclic systems and pharmaceutical compositions thereof” (University of Sharjah, priority 2018, dated 2024):

How the values were obtained:
Assay in all cases: Full dose-response, survival of cancer cell line (SRB assay)
Format in all cases: cell-based
[1] = system: MCF7; details: Homo sapiens, breast cancer, 48 hours of drug treatment, average of three individual experiments
Source text: (§1) Dulbecco's Modified Eagles Medium (DMEM), RPMI 1640 medium and propidium iodide (PI) were purchased from Sigma Aldrich (Darmstadt, Germany). For western blot, the antibodies; c-Myc, p^53, p^21, Bax, Bid, BclxL, GAPDH, caspase-3, caspase-9, p-ATM, p-ATR, p-Chk1, p-Chk2, p-P^53, and p-H2AX along with respective mouse/rabbit secondary antibodies were purchased from Cell Signaling Technology (Danvers, MA, USA). FITC Annexin V Apoptosis kit was purchased from BD Biosciences (New Jersey, USA). All other chemicals and solvents used were of standard analytical grade. The stock solutions of SIMR compounds were made in 100% DMSO and working solutions for treatments never exceeded >1% DMSO. The cell lines were gifted from Radiobiology and Experimental Radio Oncology lab, University Cancer Center, Hamburg University, Hamburg, Germany. F180 and HCT116 cells were cultured in DMEM media while MCF-7 and SKBR3 cells were cultured in RPMI along with 10% FBS and 5% CO2 in a humidified incubator at 37° C. The cells were grown on polystyrene T-75 (75 cm^2) culture flasks and all the experiments were performed at ˜70% cell confluency.
(§2) SRB assay was performed on DU-143 and MCF-7 cells in order to find out the sub-lethal dosage (IC50) of the synthesized compounds based on reported method with minor modifications. Briefly, 1×10^4 cells were seeded in a 96-well plate overnight and were treated with different concentrations of compounds and incubated further for 48 hours. The wells which were devoid of any treatment served as controls. After the treatment time, the plates were incubated with 50% trichloroacetic acid (TCA) at 4° C. for 1 hour. The cells were then washed, dried and exposed to 1% acetic acid for short period. Two hundred microliters of 10 mMtris base solution was then added with 10 min incubation after drying the plates and the OD was read at 492 nm by using a Multiskan™ GO (Thermo Scientific, USA) microplate Spectrophotometer.

[2] = system: SKBR3; details: Homo sapiens, SK-BR-3; breast cancer; 48 hours of drug treatment; average of three individual experiments
Source text: as §1, §2

[3] = system: HCT116; details: Homo sapiens, HCT-116; colon cancer; 48 hours of drug treatment; average of three individual experiments
Source text: as §1, §2

Structure (SMILES) | IC50 [1] [µM] | IC50 [2] [µM] | IC50 [3] [µM]
CC(=O)Nc1ccc(C2=CSC3=N[C@@H]4c5c(ccc6ccccc56)OC[C@@H]4C(C)(C)N23)cc1 [Compound 1m] | 4.5 | 6.4 | 3.7
COc1ccc(OC)c(C2=CSC3=N[C@@H]4c5c(ccc6ccccc56)OC[C@@H]4C(C)(C)N23)c1 [Compound 1n] | 6.76 | 10.1 | 6.2
CC1=C(c2ccccc2)N2C(=N[C@@H]3c4c(ccc5ccccc45)OC[C@@H]3C2(C)C)S1 [Compound 1q] | 11.8 | 9.4 | 4.7
CC1=C(c2ccc(Br)cc2)N2C(=N[C@@H]3c4c(ccc5ccccc45)OC[C@@H]3C2(C)C)S1 [Compound 1r] | 8.14 | 7.6 | 7.2
CC1=C(c2ccc(Cl)c(Cl)c2)N2C(=N[C@H]3c4cc5c6c(c4OC[C@@H]3C2(C)C)CCCN6CCC5)S1 [Compound 1x] | 0.38 | 1.4 | 2.3
COc1cccc2c1C(=O)c1c(O)c3c(c(O)c1C2=O)C[C@@](O)(C(=O)CO)C[C@@H]3O[C@H]1C[C@H](N)[C@H](O)[C@H](C)O1 [Doxorubicin, reference compound] | 0.058 | 0.25 | 0.096
